Experimental data as given in patent US20240316061A1, “BET INHIBITORS FOR TREATING PAB1 DEFICIENT CANCER” (INSTITUT CURIE, priority 2021, published 2024).

Experiments:
Format in all cases: cell-based
[1] = system: isogenic HAP1 cells (Wild-type or BAP1 knockout); assay: Proliferation of isogenic HAP1 cells exposed to BI894999, CellTiter-Glo; conditions: increasing concentration for 7 days; FIG. 3
Description: Proliferation of isogenic HAP1 cells (Wild-type or BAP1 knockout) exposed to increasing concentration of the BET inhibitor BI894999 for 7 days. Proliferation was measured using the CellTiter-Glo Luminescent Cell Viability assay.

[2] = system: human BAP1 cells either wild type or BAP1 knockout; assay: Proliferation of BAP1 wild type or BAP1 knockout cells exposed to OTX015, Cell Titer Glow; conditions: increasing dose for 12 days, compound renewed after 6 days; FIG. 1
Description: Proliferation of human BAP1 cells either wild type or BAP1 knockout (generated by genome editing) exposed to increasing dose of OTX015 for 12 days Cells were grown in IMDM and compound was renewed after 6 days. Cell viability was measured using Cell Titer Glow.

[3] = system: uveal melanoma derived cells wild type for BAP1 (MP41 and MM66) or BAP1 inactivated (MP46 and MP38); assay: Proliferation of uveal melanoma derived cells exposed to OTX015, MTT assay; conditions: increasing concentration for 12 days; MP46, MP38 vs MP41, MM66; FIG. 2
Description: Proliferation of uveal melanoma derived cells either wild type for BAP1 (MP41 and MM66) or for which BAP1 is inactivated (MP46 and MP38). Cells were exposed to increasing concentration of OTX015 for 12 days, Proliferation was measured using the MTT assay.

Row | Structure (SMILES) | Dose response (proliferation) in BAP1 knockout HAP1 cells compared to HAP1 cells expressing BAP1 [1] | Dose response (proliferation) of BAP1 KO cells compared to BAP1 WT cells [2] | Dose response (proliferation) in BAP1 mutated UM derived cells compared to UM cells expressing BAP1 [3]
1 | CNc1nc(-c2nc3ccc(N4CCN(C)CC4)cc3n2Cc2ccccc2)cn2c(C)nnc12 [BI894999] | enhanced dose response | – | –
2 | Cc1sc2c(c1C)C(c1ccc(Cl)cc1)=N[C@@H](CC(=O)Nc1ccc(O)cc1)c1nnc(C)n1-2 [OTX015] | – | highest dose response | enhanced dose response
